Results taken from patent US11306092B2, “Amino indole compounds useful as TLR inhibitors” (BRISTOL-MYERS SQUIBB COMPANY, priority 2017, dated 2022).

Tests used:
Format in all cases: cell-based
human TLR8 = target: T1, human TLR8 (Homo sapiens, UniProt Q9NR97); test: TLR8 inhibition reporter assay (HEK-Blue SEAP reporter); settings: HEK-Blue cells overexpressing human TLR8; R848 15.9 μM; 22 hour incubation
T1 construct: host or cells: HEK-Blue cells
T1 sequence (Q9NR97 27-1041): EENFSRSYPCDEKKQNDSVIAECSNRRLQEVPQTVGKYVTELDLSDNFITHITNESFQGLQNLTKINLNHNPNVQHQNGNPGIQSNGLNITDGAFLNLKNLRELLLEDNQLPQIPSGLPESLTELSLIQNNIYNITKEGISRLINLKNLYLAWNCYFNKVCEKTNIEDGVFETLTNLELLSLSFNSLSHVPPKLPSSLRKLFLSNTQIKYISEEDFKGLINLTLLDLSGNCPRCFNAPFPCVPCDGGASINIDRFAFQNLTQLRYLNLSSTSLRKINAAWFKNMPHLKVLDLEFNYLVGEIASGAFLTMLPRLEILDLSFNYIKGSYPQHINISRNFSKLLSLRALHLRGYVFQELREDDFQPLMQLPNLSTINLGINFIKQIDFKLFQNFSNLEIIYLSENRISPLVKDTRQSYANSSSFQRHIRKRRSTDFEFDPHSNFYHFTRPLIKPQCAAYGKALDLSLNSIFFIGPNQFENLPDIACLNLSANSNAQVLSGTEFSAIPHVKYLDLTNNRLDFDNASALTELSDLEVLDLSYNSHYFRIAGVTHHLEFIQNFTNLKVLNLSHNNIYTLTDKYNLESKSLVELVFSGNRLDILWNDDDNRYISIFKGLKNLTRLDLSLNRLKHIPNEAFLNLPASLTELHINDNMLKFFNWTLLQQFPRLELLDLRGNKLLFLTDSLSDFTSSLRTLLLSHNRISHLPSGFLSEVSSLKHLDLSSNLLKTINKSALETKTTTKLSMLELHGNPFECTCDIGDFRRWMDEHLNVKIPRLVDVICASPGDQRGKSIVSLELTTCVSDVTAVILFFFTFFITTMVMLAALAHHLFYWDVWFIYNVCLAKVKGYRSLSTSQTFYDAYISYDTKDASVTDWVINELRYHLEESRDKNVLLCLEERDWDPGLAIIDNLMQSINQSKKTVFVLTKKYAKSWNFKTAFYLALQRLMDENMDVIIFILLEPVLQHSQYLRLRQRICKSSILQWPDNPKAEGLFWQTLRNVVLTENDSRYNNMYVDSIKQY
Summary of the method: (§1)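 Screening used HEK-Blue cells overexpressing one human TLR (7, 8 or 9) and an IFN-β minimal promoter–NF-κB/AP-1 SEAP construct. Stimulation lasted 22 h at 37 °C with receptor-specific agonist: gardiquimod, R848 or ODN2006 at 7.5 μM, 15.9 μM and 5 nM.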

human TLR7 = target: T2, human TLR7 (Homo sapiens, UniProt Q9NYK1); test: TLR7 inhibition reporter assay (HEK-Blue SEAP reporter); settings: HEK-Blue cells overexpressing human TLR7; gardiquimod 7.5 μM; 22 hour incubation
T2 construct: host or cells: HEK-Blue cells
T2 sequence (Q9NYK1 27-1049): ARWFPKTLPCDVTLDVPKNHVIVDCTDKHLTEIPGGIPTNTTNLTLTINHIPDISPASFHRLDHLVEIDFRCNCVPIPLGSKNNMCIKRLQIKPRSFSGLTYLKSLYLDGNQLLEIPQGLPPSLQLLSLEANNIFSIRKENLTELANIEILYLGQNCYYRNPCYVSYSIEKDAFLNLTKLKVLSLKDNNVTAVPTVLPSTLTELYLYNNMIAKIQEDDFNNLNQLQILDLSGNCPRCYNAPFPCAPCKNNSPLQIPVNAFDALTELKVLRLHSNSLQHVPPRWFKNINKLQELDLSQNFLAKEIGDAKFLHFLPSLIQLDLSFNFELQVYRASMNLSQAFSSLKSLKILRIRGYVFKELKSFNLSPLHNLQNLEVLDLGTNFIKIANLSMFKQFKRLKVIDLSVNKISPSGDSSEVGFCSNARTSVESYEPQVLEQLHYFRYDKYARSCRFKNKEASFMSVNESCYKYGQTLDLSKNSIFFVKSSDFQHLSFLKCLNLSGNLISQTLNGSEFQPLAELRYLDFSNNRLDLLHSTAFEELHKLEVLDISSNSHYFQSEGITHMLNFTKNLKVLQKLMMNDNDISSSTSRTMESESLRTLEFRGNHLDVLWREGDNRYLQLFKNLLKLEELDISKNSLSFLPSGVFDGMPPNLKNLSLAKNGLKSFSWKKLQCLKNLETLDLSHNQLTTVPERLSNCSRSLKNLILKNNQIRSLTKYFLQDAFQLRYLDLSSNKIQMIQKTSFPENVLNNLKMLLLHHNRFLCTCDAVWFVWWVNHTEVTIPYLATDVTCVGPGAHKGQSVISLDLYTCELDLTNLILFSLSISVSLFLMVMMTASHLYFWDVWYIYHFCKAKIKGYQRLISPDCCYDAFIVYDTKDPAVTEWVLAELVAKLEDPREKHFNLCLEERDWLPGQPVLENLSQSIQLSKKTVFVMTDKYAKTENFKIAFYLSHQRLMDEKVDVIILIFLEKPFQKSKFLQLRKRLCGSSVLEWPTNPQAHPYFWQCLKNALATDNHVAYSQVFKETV
Summary of the method: as §1

human TLR9 = target: T3, human TLR9 (Homo sapiens, UniProt Q9NR96); test: TLR9 inhibition reporter assay (HEK-Blue SEAP reporter); settings: HEK-Blue cells overexpressing human TLR9; ODN2006 5 nM; 22 hour incubation
T3 construct: host or cells: HEK-Blue cells
T3 sequence (Q9NR96 26-1032): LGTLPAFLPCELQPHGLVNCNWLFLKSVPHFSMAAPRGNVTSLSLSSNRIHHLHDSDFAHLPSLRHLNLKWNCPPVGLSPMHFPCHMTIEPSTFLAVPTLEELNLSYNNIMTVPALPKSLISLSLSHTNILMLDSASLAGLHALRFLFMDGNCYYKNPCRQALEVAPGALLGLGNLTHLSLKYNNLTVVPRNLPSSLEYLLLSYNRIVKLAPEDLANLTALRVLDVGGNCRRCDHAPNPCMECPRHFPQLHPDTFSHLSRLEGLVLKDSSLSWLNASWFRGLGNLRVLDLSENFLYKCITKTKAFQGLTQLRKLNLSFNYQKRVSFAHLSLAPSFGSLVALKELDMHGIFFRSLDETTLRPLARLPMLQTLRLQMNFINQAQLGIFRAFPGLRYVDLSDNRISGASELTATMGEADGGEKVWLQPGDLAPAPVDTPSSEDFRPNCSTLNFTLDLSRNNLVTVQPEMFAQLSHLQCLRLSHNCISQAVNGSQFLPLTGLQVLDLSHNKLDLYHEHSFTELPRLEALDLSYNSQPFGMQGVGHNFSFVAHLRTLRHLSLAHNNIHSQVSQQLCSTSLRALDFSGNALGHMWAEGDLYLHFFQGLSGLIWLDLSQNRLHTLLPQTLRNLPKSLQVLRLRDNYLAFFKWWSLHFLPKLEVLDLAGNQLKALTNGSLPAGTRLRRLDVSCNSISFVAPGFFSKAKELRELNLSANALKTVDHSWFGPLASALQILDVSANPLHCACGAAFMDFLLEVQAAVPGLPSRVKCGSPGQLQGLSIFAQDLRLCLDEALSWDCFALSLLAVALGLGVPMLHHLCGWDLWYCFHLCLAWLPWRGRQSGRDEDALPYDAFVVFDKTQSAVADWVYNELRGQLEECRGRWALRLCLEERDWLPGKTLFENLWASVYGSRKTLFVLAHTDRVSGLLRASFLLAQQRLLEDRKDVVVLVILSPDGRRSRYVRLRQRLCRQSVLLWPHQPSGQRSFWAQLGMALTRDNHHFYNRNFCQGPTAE
Summary of the method: as §1

IC50 (human TLR8)	IC50 (human TLR7)	IC50 (human TLR9)	SMILES
16 nM	23 nM	637 nM	COc1ccc(-c2[nH]c3ccc(N4CCC(N5CCN(C(C)C)CC5)CC4)cc3c2C(C)C)cc1OC [Example 85, 2-(3,4-dimethoxyphenyl)-3-isopropyl-5-(4-(4-isopropylpiperazin-1-yl)piperidin-1-yl)-1H-indole]
4.8 nM	41 nM	2800 nM	COc1ccc(-c2[nH]c3ccc(N4CCC(NCCN5CCOCC5)CC4)cc3c2C(C)C)cc1OC [Example 86, 1-(2-(3,4-dimethoxyphenyl)-3-isopropyl-1H-indol-5-yl)-N-(2-morpholinoethyl)piperidin-4-amine]
5 nM	31 nM	2000 nM	COc1ccc(-c2[nH]c3ccc(N4CCC(NC5CCN(C(C)=O)CC5)CC4)cc3c2C(C)C)cc1OC [Example 89, 1-(4-((1-(2-(3,4-dimethoxyphenyl)-3-isopropyl-1H-indol-5-yl)piperidin-4-yl)amino)piperidin-1-yl) ethan-1-one]
19 nM	37 nM	809 nM	COc1ccc(-c2[nH]c3ccc(N4CCC(N5CCN(C(C)(C)C)CC5)CC4)cc3c2C(C)C)cc1OC [Example 90, 5-(4-(4-(tert-butyl)piperazin-1-yl)piperidin-1-yl)-2-(3,4-dimethoxyphenyl)-3-isopropyl-1H-indole]
92 nM	116 nM	1940 nM	COc1ccc(-c2[nH]c3ccc(N4CCC(N5CCN(CC(C)C)CC5)CC4)cc3c2C(C)C)cc1OC [Example 91, 2-(3,4-dimethoxyphenyl)-5-(4-(4-isobutylpiperazin-1-yl)piperidin-1-yl)-3-isopropyl-1H-indole]
12 nM	19 nM	1750 nM	COCCN1CCN(C2CCN(c3ccc4[nH]c(-c5ccc(OC)c(OC)c5)c(C(C)C)c4c3)CC2)CC1 [Example 92, 2-(3,4-dimethoxyphenyl)-3-isopropyl-5-(4-(4-(2-methoxyethyl)piperazin-1-yl)piperidin-1-yl)-1H-indole]
3.5 nM	33 nM	816 nM	COc1ccc(-c2[nH]c3ccc(N4CCC(N5CCN(c6ccncc6)CC5)CC4)cc3c2C(C)C)cc1OC [Example 94, 2-(3,4-dimethoxyphenyl)-3-isopropyl-5-(4-(4-(pyridin-4-yl)piperazin-1-yl)piperidin-1-yl)-1H-indole]
7.8 nM	39 nM	533 nM	COc1ccc(-c2[nH]c3ccc(N4CCC(NC5CC(C)(C)N(C)C(C)(C)C5)CC4)cc3c2C(C)C)cc1OC [Example 95, N-(1-(2-(3,4-dimethoxyphenyl)-3-isopropyl-1H-indol-5-yl)piperidin-4-yl)-1,2,2,6,6-pentamethylpiperidin-4-amine]
1050 nM	436 nM	2840 nM	COc1ccc(-c2[nH]c3ccc(N4CCC(C5CCN(Cc6cccn6C)CC5)CC4)cc3c2C(C)C)cc1OC [Example 96, 2-(3,4-dimethoxyphenyl)-3-isopropyl-5-(1′-((1-methyl-1H-pyrrol-2-yl)methyl)-[4,4′-bipiperidin]-1-yl)-1H-indole]
1910 nM	862 nM	6610 nM	COc1ccc(-c2[nH]c3ccc(N4CCC(C5CCN(CCC(F)(F)F)CC5)CC4)cc3c2C(C)C)cc1OC [Example 97, 2-(3,4-dimethoxyphenyl)-3-isopropyl-5-(1′-(3,3,3-trifluoropropyl)-[4,4′-bipiperidin]-1-yl)-1H-indole]
62 nM	11 nM	538 nM	COc1ccc(-c2[nH]c3ccc(N4CCC(N5CCN(C6CCN(C)CC6)CC5)CC4)cc3c2C(C)C)cc1OC [Example 99, 2-(3,4-dimethoxyphenyl)-3-isopropyl-5-(4-(4-(1-methylpiperidin-4-yl)piperazin-1-yl)piperidin-1-yl)-1H-indole]
28 nM	16 nM	413 nM	COc1ccc(-c2[nH]c3ccc(N4CCC(N5CCN(CCCN6CCCC6)CC5)CC4)cc3c2C(C)C)cc1OC [Example 102, 2-(3,4-dimethoxyphenyl)-3-isopropyl-5-(4-(4-(3-(pyrrolidin-1-yl)propyl)piperazin-1-yl)piperidin-1-yl)-1H-indole]
8.2 nM	1120 nM	2670 nM	COc1ccc(-c2[nH]c3ccc(NC4CC(C)(C)N(C)C(C)(C)C4)cc3c2C(C)C)cc1OC [Example 103, 2-(3,4-dimethoxyphenyl)-3-isopropyl-N-(1,2,2,6,6-pentamethylpiperidin-4-yl)-1H-indol-5-amine]
9.7 nM	1310 nM	6820 nM	COc1ccc(-c2[nH]c3ccc(N(C)CC4CCCN4C)cc3c2C(C)C)cc1OC (stereo not drawn) [Example 104, 2-(3,4-dimethoxyphenyl)-3-isopropyl-N-methyl-N-((1-methylpyrrolidin-2-yl)methyl)-1H-indol-5-amine]
